# System: 519858-162-T-J1-PDC complex spheroid viability
# Test: Anticancer human tumor 519858-162-T-J1-PDC patient-derived colon adenocarcinoma cell line growth inhibition [GQUAD]
# Conditions: for IC50: curve of first compound; for viability, T/C: stronger effect = lower value
# Source text: DNA G-quadruplex Stabilizer Agents in Combinations in Complex Spheroids
# A high-throughput screen of multi-cell type tumor spheroids was designed to identify active combinations of DNA G-quadruplex stabilizer agents and targeted small molecules. Complex spheroids include a stromal component modeled by human endothelial cells (HUVEC) and fibroblasts modeled by human mesenchymal stem cells (MSCs). The concentration ranges selected for each drug and investigational agent were based upon clinically achievable concentrations if the clinical Cmax of the agent was known.
# Compounds. The drugs and investigational agents: pidnarulex (CX-5461; NSC782164), APTO-253 (NSC789042), BRACO-19 (NSC847499), peposertib (NSC802822), ceralasertib (NSC780249), elimusertib (NSC800525), camonsertib (NSC841442), AZD-1390 (NSC803789), olaparib (NSC753686), talazoparib (NSC767125), ART-558 (NSC835418), sotorasib (NSC818433), MRTX-1133 (NSC836407), SN-38 (NSC673596), topotecan (NSC609699), etoposide (NSC141540), doxorubicin (NSC123127), gemcitabine (NSC613327), 5-fluorouracil (NSC19893), paclitaxel (NSC125973), vemurafenib (NSC761431), panobinostat (NSC761190), R-306465 (JNJ-16241199; NSC773264), adavosertib (NSC754352), TP-3654 (NSC805149), carboplatin (NSC241240), KSQ-4279 (NSC840948), and staurosporine (NSC755774) were obtained from the National Cancer Institute (NCI) Developmental Therapeutics Program Chemical Repository (34). The FDA-approved anticancer drug set is available from the NCI Developmental Therapeutics Program. […] The stock solutions were prepared in dimethyl sulfoxide (DMSO, Sigma-Aldrich, St. Louis, MO, cat. D2650) at 800-fold the tested concentration and stored at -70 degrees C prior to their use. All drugs and investigational agents were tested over a range starting from a high concentration at or near the clinical Cmax and decreasing in half-log increments. If the clinical Cmax for an agent had not been determined, the highest concentration tested was 10 microM.
# 2.3 Cell Culture. All cells were maintained in an incubator at 37 degrees C and 5% CO2 with 95% humidity. The PDC lines were cultured according to standard operating procedures established by the NCI PDMR. All PDCs were thawed and cultured in Matrigel-coated flasks prepared with a working solution of 1X Ham's F-12 nutrient mix, without supplementation (Invitrogen, cat. 11765054), 100 U/mL penicillin-streptomycin (Invitrogen, cat. 15140122), and 2.5% Matrigel (Corning Inc., cat. 354248) for the first three passages. The 857933-349-R-J2-PDC line was cultured in 6C/Colon 1B media, which includes advanced DMEM/F-12 (Thermo Fisher Scientific, cat. 12634028), 10 mM HEPES (Thermo Fisher Scientific, cat. 15630080), 1X GlutaMAX supplement (Thermo Fisher Scientific, cat. 35050061), 0.1 mg/mL primocin (InvivoGen, cat. ant-pm-2), 10% defined fetal bovine serum, heat inactivated (HyClone Laboratories Inc., cat. SH30070.03HI), 50% L-WRN conditioned media (ATCC, cat. CRL-3276), 1.25 mM N-Acetyl-L-cysteine (Sigma-Aldrich, cat. A9165), 10 mM nicotinamide (Sigma-Aldrich, cat. N0636), 1X B-27 supplement (Thermo Fisher Scientific, cat. 17504044), 1X N-2 supplement (Thermo Fisher Scientific, cat. 17502048), 10 microM Y-27632 dihydrochloride (Tocris Bioscience, cat. 1254), and 50 ng/mL human EGF recombinant protein (Thermo Fisher Scientific, cat. PHG0311). The 485176-168-R4-J1-PDC line was cultured in Panc media, which includes all 6C/Colon 1B media components plus 100 ng/mL human FGF-10 (Thermo Fisher Scientific, cat. 100-26), 500 nM SB-431542 (Selleckchem, cat. S1067), and gastrin (Tocris, cat. 3006).
# […]
# [1] = second compound 0.0316 µM, first compound 0.0316 µM
# [2] = second compound 0.0316 µM, first compound 0.1 µM
# [3] = second compound 0.0316 µM, first compound 0.316 µM
# [4] = second compound 0.0316 µM, first compound 1 µM
# [5] = second compound 0.0316 µM, first compound 3.16 µM
# [6] = second compound 0.0316 µM, first compound 10 µM
# [7] = second compound 0.1 µM, first compound 0.0316 µM
# [8] = second compound 0.1 µM, first compound 0.1 µM
# [9] = second compound 0.1 µM, first compound 0.316 µM
# [10] = second compound 0.1 µM, first compound 1 µM
# [11] = second compound 0.1 µM, first compound 3.16 µM
# [12] = second compound 0.1 µM, first compound 10 µM
# [13] = second compound 0.316 µM, first compound 0.0316 µM
# [14] = second compound 0.316 µM, first compound 0.1 µM
# [15] = second compound 0.316 µM, first compound 0.316 µM
# [16] = second compound 0.316 µM, first compound 1 µM
# [17] = second compound 0.316 µM, first compound 3.16 µM
# [18] = second compound 0.316 µM, first compound 10 µM
# [19] = second compound 1 µM, first compound 0.0316 µM
# [20] = second compound 1 µM, first compound 0.1 µM
# [21] = second compound 1 µM, first compound 0.316 µM
# [22] = second compound 1 µM, first compound 1 µM
# [23] = second compound 1 µM, first compound 3.16 µM
# [24] = second compound 1 µM, first compound 10 µM
# [25] = second compound 3.16 µM, first compound 0.0316 µM
# [26] = second compound 3.16 µM, first compound 0.1 µM
# [27] = second compound 3.16 µM, first compound 0.316 µM
# [28] = second compound 3.16 µM, first compound 1 µM
# [29] = second compound 3.16 µM, first compound 3.16 µM
# [30] = second compound 3.16 µM, first compound 10 µM
# [31] = second compound 10 µM, first compound 0.0316 µM
# [32] = second compound 10 µM, first compound 0.1 µM
# [33] = second compound 10 µM, first compound 0.316 µM
# [34] = second compound 10 µM, first compound 1 µM
# [35] = second compound 10 µM, first compound 3.16 µM
# [36] = second compound 10 µM, first compound 10 µM
# 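Note: spheroids exposed to compounds for 7 days.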
# 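Throughout, for viability, T/C: 100% = DMSO vehicle control viability.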
compound,measurement,setting,value
CC1COCCN1c1cc(C2(O)CC3CCC(C2)O3)c2cnn(-c3ccn[nH]3)c2n1 (centres undefined) + CN(C)c1ccc(Nc2c3ccc(NC(=O)CCN4CCCC4)cc3nc3cc(NC(=O)CCN4CCCC4)ccc23)cc1,IC50,second compound 0.0316 µM,8.37 µM
same,IC50,second compound 0.1 µM,> 10 µM
same,IC50,second compound 0.316 µM,> 10 µM
same,IC50,second compound 1 µM,9.4 µM
same,IC50,second compound 3.16 µM,> 10 µM
same,IC50,second compound 10 µM,> 10 µM
same,"viability, T/C",[1],84.3%
same,"viability, T/C",[2],89%
same,"viability, T/C",[3],87.3%
same,"viability, T/C",[4],90.2%
same,"viability, T/C",[5],114%
same,"viability, T/C",[6],42%
same,"viability, T/C",[7],77.5%
same,"viability, T/C",[8],76.9%
same,"viability, T/C",[9],76.5%
same,"viability, T/C",[10],73.5%
same,"viability, T/C",[11],75.2%
same,"viability, T/C",[12],71.6%
same,"viability, T/C",[13],106%
same,"viability, T/C",[14],65.5%
same,"viability, T/C",[15],98.2%
same,"viability, T/C",[16],105%
same,"viability, T/C",[17],113%
same,"viability, T/C",[18],57%
same,"viability, T/C",[19],104%
same,"viability, T/C",[20],75.6%
same,"viability, T/C",[21],99.8%
same,"viability, T/C",[22],79.2%
same,"viability, T/C",[23],88.4%
same,"viability, T/C",[24],47.8%
same,"viability, T/C",[25],71.1%
same,"viability, T/C",[26],66.8%
same,"viability, T/C",[27],98.3%
same,"viability, T/C",[28],73.2%
same,"viability, T/C",[29],74.3%
same,"viability, T/C",[30],65.3%
same,"viability, T/C",[31],85%
same,"viability, T/C",[32],81%
same,"viability, T/C",[33],59.9%
same,"viability, T/C",[34],60.7%
same,"viability, T/C",[35],76.5%
same,"viability, T/C",[36],43.1%
CC1COCCN1c1cc(C2(S(C)(=N)=O)CC2)nc(-c2ccnc3[nH]ccc23)n1 (centres undefined) + CN(C)c1ccc(Nc2c3ccc(NC(=O)CCN4CCCC4)cc3nc3cc(NC(=O)CCN4CCCC4)ccc23)cc1,IC50,second compound 0.0316 µM,> 10 µM
same,IC50,second compound 0.1 µM,> 10 µM
same,IC50,second compound 0.316 µM,> 10 µM
same,IC50,second compound 1 µM,> 10 µM
same,IC50,second compound 3.16 µM,> 10 µM
same,IC50,second compound 10 µM,> 10 µM
same,"viability, T/C",[1],115%
same,"viability, T/C",[2],102%
same,"viability, T/C",[3],119%
same,"viability, T/C",[4],115%
same,"viability, T/C",[5],98.3%
same,"viability, T/C",[6],77.7%
same,"viability, T/C",[7],133%
same,"viability, T/C",[8],124%
same,"viability, T/C",[9],125%
same,"viability, T/C",[10],110%
same,"viability, T/C",[11],94.2%
same,"viability, T/C",[12],70%
same,"viability, T/C",[13],123%
same,"viability, T/C",[14],108%
same,"viability, T/C",[15],81.1%
same,"viability, T/C",[16],79.7%
same,"viability, T/C",[17],91.1%
same,"viability, T/C",[18],100%
same,"viability, T/C",[19],88.2%
same,"viability, T/C",[20],88.3%
same,"viability, T/C",[21],90.8%
same,"viability, T/C",[22],105%
same,"viability, T/C",[23],86.5%
same,"viability, T/C",[24],100%
same,"viability, T/C",[25],93.3%
same,"viability, T/C",[26],60.1%
same,"viability, T/C",[27],93.9%
same,"viability, T/C",[28],111%
same,"viability, T/C",[29],84.8%
same,"viability, T/C",[30],66.1%
same,"viability, T/C",[31],79.3%
same,"viability, T/C",[32],62.7%
same,"viability, T/C",[33],82.8%
same,"viability, T/C",[34],99.5%
same,"viability, T/C",[35],82.5%
same,"viability, T/C",[36],84.8%

# Source: PubChem BioAssay AID2060507 (Molecular Pharmacology Branch, DTP, NCI, 2025)
